From patent US20240423949A1, “APPLICATION OF SALVIANOLIC ACID B IN PREPARING ANTI-ROTAVIRUS PREPARATION” (GUANGDONG MEDICAL UNIVERSITY, priority 2023, published 2024)

Tests used:
MA104 cells = experiment: Toxicity of salvianolic acid B on MA104 cells (MTT assay); format: cell-based, Rhesus monkey; settings: 72 h; for Toxicity to MA104 cells: concentration range 0-256 μM
Procedure: When the MA104 cells grew to monolayers, the cells were digested, centrifuged and resuspended, and the suspension was further diluted and then 10 μL was taken and counted on a blood cell counting plate, and the required cell volume was calculated. Cell plating was then performed in a 96-well plate with 100 μL of the cell suspension per well at a cell density of 8×10^4 per mL. Cells grown to monolayers were treated with different concentrations of salvianolic acid B for 72 h, and the toxicity of salvianolic acid B on MA104 cells was detected by MTT assay. 10 μL of MTT solution was added to each well, and the mixture was incubated in the incubator for 3-4 h. Then, the 96-well plate was taken out, and the culture solution in the well was carefully aspirated from the wells. 150 μL of DMSO was added to each well, and the mixture was shaken at a low speed for 10 min on a shaker to fully dissolve the crystal, and the absorbance was detected and recorded at a wavelength of 490 nm.
The formula for the relative cell survival rate is:
Cell survival rate={(Aexperimental group−Ablank)/(Acontrol group−Ablank)×100%}

Wa strain rotavirus [1] = experiment: Anti-RV adsorption effect in MA104 cells (drug before virus, MTT assay); format: cell-based; settings: 16-256 μM
Procedure: Salvianolic acid B solutions of different concentrations were added into a 96-well culture plate of MA104 cells grown into monolayers, wherein 4 wells were repeated for each concentration of the solution, with 100 μL per well. An equal volume of ribavirin was added to the positive control group, and only an equal volume of DMEM culture solution was added to both the normal cell control group and the virus control group, and same were placed in a 5% CO2 incubator at 37° C. for incubation for 2 h. […] 1/10 volume of MTT solution was added to each well, after being incubated for 3-4 h in the incubator, the 96-well plate was taken out, the culture solution in the well was carefully aspirated, 150 uL of DMSO was added to each well, and same was placed on a shaker and shaken at a low speed for 10 min, so that the crystal was fully dissolved; and the absorbance was detected and recorded at a wavelength of 490 nm. The drug-to-virus inhibition rates were calculated and the experiment was repeated 3 times. […]

Wa strain rotavirus [2] = experiment: Anti-RV biosynthesis effect in MA104 cells (drug after virus, MTT assay); format: cell-based; settings: 64-256 μM, 100 TCID50, 72 h
Procedure: 100 TCID50 virus solution (virus with 20 μg/mL trypsin at 37° C. for 30 min) was added to a 96-well culture plate of MA104 cells grown to monolayers, with 100 μL per well, and the cells were rinsed twice with PBS before addition. A normal cell control group was set, an equal volume of DMEM culture solution was added, then the 96-well plate was placed in a 5% CO2 incubator at 37° C. for incubation for 2 h, the virus solution was aspirated, different concentrations of salvianolic acid B and ribavirin were added, respectively, with 100 μL per well, and a virus control group was set and added with only a maintenance solution, with 100 μL per well. The 96-well plate was placed in a 5% CO2 incubator at 37° C. for incubation and continuous observation for 72 h and then detected by the MTT assay. A 1/10 volume of MTT solution was added to each well. After being incubated for 3-4 h in the incubator, the 96-well plate was removed, the culture solution in the well was carefully aspirated, and 150 μL of DMSO was added to each well. The plate was shaken at a low speed for 10 min on a shaker to fully dissolve the crystal, and the absorbance was detected and recorded at a wavelength of 490 nm. The drug-to-virus inhibition rates were calculated and the experiment was repeated 3 times. […]

Wa strain rotavirus [3] = experiment: Direct inhibitory effect on RV (drug pre-mixed with virus, MA104 cells, MTT assay); format: cell-based
Procedure: Different concentrations of salvianolic acid B solution with 50TCID50 virus solution (virus with 20 μg/mL trypsin at 37° C. for 30 min), DMEM with 50TCID50 virus solution, ribavirin with 50TCID50 virus solution were mixed in equal volumes and incubated in a 5% CO2 incubator at 37° C. for 2 hours. The cells were rinsed twice with PBS and added to a 96-well culture plate of MA104 cells grown to monolayers, and for the normal cell control group, an equal volume of DMEM was added. After incubated at 37° C. and 5% CO2 for 2 h, the mixed solution was aspirated and the maintenance solution was added, with 100 μL per well. The 96-well plate was placed in a 5% CO2 incubator at 37° C. for continuous observation for 72 h and then detected by the MTT assay. A 1/10 volume of MTT solution was added to each well. After incubated for 3-4 h in the incubator, the 96-well plate was removed, the culture solution in the well was carefully aspirated, and 150 µL of DMSO was added to each well. The plate was shaken at a low speed for 10 min on a shaker to fully dissolve the crystal, and the absorbance was detected and recorded at a wavelength of 490 nm. The drug-to-virus inhibition rates were calculated and the experiment was repeated 3 times.
Virus inhibition rate (%)=(average A value of drug group−average A value of virus control group)/(average A value of normal cell control group−average A value of virus control group)×100%

[4] = test system: RV structural protein VP6 gene expression; experiment: Gene expression level of RV structural protein VP6 in RV infected MA104 cells (real time PCR); format: cell-based, rotavirus
Procedure: (1) In order to further verify whether salvianolic acid B has an inhibitory effect on RV synthesis, a drug group (MA104 cells after RV infection were treated with different concentrations of salvianolic acid B), a ribavirin group, a normal group, and an RV group were set up. The supernatant was removed and PBS rinse was performed twice. 1 mL of Trizol reagent was added to each well and allowed to stand for 5 minutes. After blowing the cells with a gun tip, they were collected in a 1.5 mL enzyme free EP tube. 200 μL of chloroform was add to the tube. After 15 seconds of vortex shock, the tube was placed at room temperature for 5 min, and centrifuged (4° C., 12000 r/min for 15 min). The centrifuged sample was divided into three layers, namely, the colorless upper layer, the white middle layer and the red lower layer. […]
Real time quantitative PCR was performed using SYBR Green I fluorescence labeling to detect the expression levels of VP6 in the drug group, ribavirin group, normal group, and RV group, SYBR® Premix Pro Taq HS qPCR Kit II reagent kit was adopted, and GAPDH was selected as an internal reference. In the experiment, a real-time fluorescent quantitative PCR amplification reaction system was prepared according to the following table with a dedicated Real-time PCR plate of Axygen, and the reaction solution was prepared on ice (the total reaction was is 10 μL).

Structure (SMILES) | Cell survival rate (MA104 cells; 512 μM, MA104 cells) | Toxicity to MA104 cells (MA104 cells) | Toxicity to MA104 cells (MA104 cells; listed as Salvianolic acid B) | Anti-RV adsorption effect (conclusion) (Wa strain rotavirus [1]) | Virus inhibition rate (anti-RV adsorption) (Wa strain rotavirus [1]; 100TCID50, 72 h) | Virus inhibition rate (anti-RV biosynthesis) (Wa strain rotavirus [2]) | Direct inhibitory effect on RV (conclusion) (Wa strain rotavirus [3]; 16-256 μM) | inhibition at 16 µM (Wa strain rotavirus [3]; Rotavirus, MA104, 16 μM (first of five values over 16-256 μM), 50TCID50, 72 h, read-out: Inhibitory rate directly inhibiting RV) | inhibition at 32 µM (Wa strain rotavirus [3]; Rotavirus, MA104, 32 μM (second of five values over 16-256 μM), 50TCID50, 72 h, read-out: Inhibitory rate directly inhibiting RV) | inhibition at 64 µM (Wa strain rotavirus [3]; Rotavirus, MA104, 64 μM (third of five values over 16-256 μM), 50TCID50, 72 h, read-out: Inhibitory rate directly inhibiting RV) | inhibition at 128 µM (Wa strain rotavirus [3]; Rotavirus, MA104, 128 μM (fourth of five values over 16-256 μM), 50TCID50, 72 h, read-out: Inhibitory rate directly inhibiting RV) | inhibition at 256 µM (Wa strain rotavirus [3]; Rotavirus, MA104, 256 μM (fifth of five values over 16-256 μM), 50TCID50, 72 h, read-out: Inhibitory rate directly inhibiting RV) | Expression level of VP6 compared with the RV group ([4]; 64, 128 and 256 μM, dose-response correlation) | Gene expression of VP6 compared to the RV group ([4]; ribavirin group)
O=C(/C=C/c1ccc(O)c2c1[C@@H](C(=O)O[C@H](Cc1ccc(O)c(O)c1)C(=O)O)[C@H](c1ccc(O)c(O)c1)O2)O[C@H](Cc1ccc(O)c(O)c1)C(=O)O [salvianolic acid B, Salvianolic acid B] | below 95% | no obvious toxicity | no drug toxicity | no significant anti-RV adsorption effect | below 50% | higher than 50% | no direct inhibitory effect | 14.2% | 15.2% | 16.5% | 15.8% | 12.7% | significantly reduced | –
NC(=O)c1ncn([C@@H]2O[C@H](CO)[C@@H](O)[C@H]2O)n1 [ribavirin, reference compound] | – | – | – | – | – | – | – | – | – | – | – | – | – | significantly reduced
